In ChEMBL document CHEMBL1147695, “Synthesis and in vitro evaluation of N-substituted aza-trozamicol analogs as vesicular acetylcholine transporter ligands” (Bioorg Med Chem Lett, 2006):

Each molecule was assayed against T1, Vesicular acetylcholine transporter (Homo sapiens, UniProt Q16572) (assay: Displacement of [3H]vesamicol from human VAChT transfected in PC12 cell line).
T1 sequence (Q16572 whole entry): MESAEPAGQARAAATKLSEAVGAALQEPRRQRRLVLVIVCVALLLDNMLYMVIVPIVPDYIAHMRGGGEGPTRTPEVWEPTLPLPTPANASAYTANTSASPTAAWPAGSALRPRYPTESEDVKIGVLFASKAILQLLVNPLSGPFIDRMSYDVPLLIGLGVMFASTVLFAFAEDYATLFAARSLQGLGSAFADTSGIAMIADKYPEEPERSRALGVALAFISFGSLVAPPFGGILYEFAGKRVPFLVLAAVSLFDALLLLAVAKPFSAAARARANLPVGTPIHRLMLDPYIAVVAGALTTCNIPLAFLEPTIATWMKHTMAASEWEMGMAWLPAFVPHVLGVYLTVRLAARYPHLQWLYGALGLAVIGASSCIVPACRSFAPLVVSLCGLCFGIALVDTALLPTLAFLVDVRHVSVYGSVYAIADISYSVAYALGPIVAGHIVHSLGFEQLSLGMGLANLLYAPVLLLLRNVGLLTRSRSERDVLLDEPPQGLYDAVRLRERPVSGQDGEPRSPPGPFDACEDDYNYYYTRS
Assay type: cell-based, PC-12

Row | IC50 | SMILES
1 | > 100 nM | C/C=C/CN1CCC(O)C(N2CCN(c3ccccc3)CC2)C1 (configuration not stated)
2 | > 100 nM | C#CCN1CCC(O)C(N2CCN(c3ccccc3)CC2)C1 (configuration not stated)
3 | > 100 nM | C=CCN1CCC(N2CCN(c3ccccc3)CC2)C(O)C1 (configuration not stated)
4 | > 100 nM | C=C(C)CN1CCC(N2CCN(c3ccccc3)CC2)C(O)C1 (configuration not stated)
5 | > 100 nM | C=CCN1CCC(O)C(N2CCN(c3ccccc3)CC2)C1 (configuration not stated)
6 | > 100 nM | OC1CCN(C/C=C/I)CC1N1CCN(c2ccccc2)CC1 (configuration not stated)
7 | > 1000 nM | CCN1CCC(O)C(N2CCN(c3ccccc3)CC2)C1 (configuration not stated)
8 | > 1000 nM | C#CCN1CCC(N2CCN(c3ccccc3)CC2)C(O)C1 (configuration not stated)
9 | > 100 nM | OC1CN(C/C=C/I)CCC1N1CCN(c2ccccc2)CC1 (configuration not stated)
10 | 100 nM | C/C=C/CN1CCC(N2CCN(c3ccccc3)CC2)C(O)C1 (configuration not stated)
11 | 57 nM | OC1CN(Cc2ccccc2)CCC1N1CCN(c2ccccc2)CC1 (configuration not stated)
12 | > 1000 nM | CCN1CCC(N2CCN(c3ccccc3)CC2)C(O)C1 (configuration not stated)
13 | > 100 nM | C=C(C)CN1CCC(O)C(N2CCN(c3ccccc3)CC2)C1 (configuration not stated)

The next lines start with the molecule.

Row | SMILES | IC50
14 | OC1CCN(Cc2ccccc2Br)CC1N1CCN(c2ccccc2)CC1 (configuration not stated) | 47 nM
15 | OC1CN(Cc2ccccc2Br)CCC1N1CCN(c2ccccc2)CC1 (configuration not stated) | 11 nM
16 | OC1CCN(Cc2cccc(Br)c2)CC1N1CCN(c2ccccc2)CC1 (configuration not stated) | 46 nM
17 | OC1CN(Cc2cccc(Br)c2)CCC1N1CCN(c2ccccc2)CC1 (configuration not stated) | 66 nM
18 | OC1CCN(Cc2ccc(Br)cc2)CC1N1CCN(c2ccccc2)CC1 (configuration not stated) | > 100 nM
19 | OC1CCNCC1N1CCN(c2ccccc2)CC1 (configuration not stated) | > 100 nM
20 | OC1CCN(Cc2ccccc2)CC1N1CCN(c2ccccc2)CC1 (configuration not stated) | > 100 nM
21 | OC1CNCCC1N1CCN(c2ccccc2)CC1 (configuration not stated) | 100 nM
22 | OC1CN(Cc2ccc(Br)cc2)CCC1N1CCN(c2ccccc2)CC1 (configuration not stated) | > 100 nM
